For three molecules, IC50 results are on record in publication PMC5547380, “Molecular cloning and characterization of protein disulfide isomerase of Brugia malayi, a human lymphatic filarial parasite” (EXCLI Journal, 2017).

What is called pIC50 is the negative decadic logarithm of the IC50, by convention in mol/L.

The assay deals with T1, Brugia malayi Protein disulfide isomerase (BmPDI) (Brugia malayi, UniProt A0A1S0S010).
T1 construct: gene pdi; recombinant 6XHis-tagged BmPDI expressed in E. coli
In words: refolding of reduced denatured RNase A, RNA hydrolysis followed by absorbance at […] nm. The format is biochemical.

pIC50: −log10 of the molar value. Read-outs that look alike come from different tables or passages of the source.

With `Cc1ccc(C(=O)Nc2ccc(S(=O)(=O)O)c3cc(S(=O)(=O)O)cc(S(=O)(=O)O)c23)cc1NC(=O)c1cccc(NC(=O)Nc2cccc(C(=O)Nc3cc(C(=O)Nc4ccc(S(=O)(=O)O)c5cc(S(=O)(=O)O)cc(S(=O)(=O)O)c45)ccc3C)c2)c1` [suramin], the pIC50 (read-out: IC50) is 4.13.

`NC[C@H]1O[C@H](O[C@H]2[C@H](O[C@@H]3O[C@H](CO)[C@@H](O)[C@H]3O)[C@@H](O)[C@H](N)C[C@@H]2N)[C@H](N)[C@@H](O)[C@@H]1O` [ribostamycin] had a pIC50 of 4.45.

Turning to `O=C1C=CC(=C(c2ccc(O)cc2)c2ccc(O)cc2)C=C1` [aurin], the pIC50 (read-out: IC50) was 4.75.
